These are literature values, as cited in patent US11878910B2, “Ph-based structural change of water soluble carbon nanoparticles for encapsulation and release of therapeutic agents in biological systems” (SINON THERAPEUTICS INC., priority 2015, dated 2024).

Consider `C1=Cc2nc1c(-c1ccccc1)c1nc(c(-c3ccccc3)c3ccc([nH]3)c(-c3ccccc3)c3ccc([nH]3)c2-c2ccccc2)C=C1` [TPP, tetraphenylporphyrin], for which the solubility in water entry was “insoluble”.
